Experiments:
[1] = system: kainic acid induced seizure; assay: Kainic acid seizure threshold test in mice (intravenous infusion); format: in vivo
Method: (§1) Male NIH Swiss mice (22-30 g) were kept in a vivarium under controlled environmental conditions (temperature, 22-26° C.; humidity, 40-50%) with an artificial 12-h light/dark cycle. Wood chips were used in all cages. Experiments were performed during the light phase of the light/dark cycle after a minimum 30-min period of acclimation to the experimental room. The animal facilities were fully accredited by the Association for Assessment and Accreditation of Laboratory Animal Care. All studies were performed under protocols approved by the Animal Care and Use Committee of the University of California, Davis in strict compliance with the Guide for the Care and Use of Laboratory Animals of the National Research Council (National Academy Press, Washington, D.C.).
Intratracheal administration of midazolam was carried out as described by Oka et al. (2006). In brief, mice were briefly anesthetized using isoflurane anesthesia (4% isoflurane). The animals were immediately placed on a surgical board held at a 60° angle. The animal's mouth was kept open by hanging the upper incisors on a hook to facilitate detection of the epiglottis. […]
Results are expressed as mean±S.E.M.; the significance of the difference in the responses of treatment groups with respect to control is based on one-way analysis of variance (ANOVA) followed by specific post-hoc comparisons using Tukey's test. […]

PTZ-induced seizures = assay: PTZ seizure threshold test, tonic extension endpoint, Example 2; format: in vivo, mice
Method: as §1, with “NIH” for “Male NIH”, “D.C.; on the internet at nap.edu/readingroom/books/labrats/).” for “D.C.).”
Midazolam was administered as a commercially available injectable solution (midazolam hydrochloride, 10 mg/10 ml; APP Pharmaceuticals, Schaumburg, Ill., USA) containing sodium chloride (0.8% w/v), disodium edetate (0.01% w/v), benzyl alcohol as preservative (1% v/v) with HCl to adjust the pH 3-3.6. Pentylenetetrazol (PTZ) (Sigma-Aldrich, St. Louis, Mo., USA) was dissolved in 0.9% w/v saline. The remaining test substances were all obtained from Tocris Bioscience (Ellisville, Mo., USA) except for clonazepam, which was from Sigma-Aldrich. Finasteride was dissolved in 25% hydroxypropyl-β-cyclodextrin (Trappsol; Cyclodextrin Technologies Development, High Springs, Fla., U.S.A.). Metyrapone was dissolved in double distilled water and PK 11195 and clonazepam were suspended in 1% Tween 80 and adjusted to volume with saline.
PTZ seizure threshold was determined according to a protocol used previously in our laboratory (Dhir et al., 2011). Intravenous PTZ elicits a sequence of seizure signs beginning with twitch and progressing to clonus and tonic limb extension. In the present study, tonic extension was used as the endpoint. […] It is noteworthy that this is the endpoint originally used in studies characterizing the actions of midazolam against PTZ seizures in mice (Pieri, 1983 Br J Clin Pharmacol 16 Suppl 1: 17S-27S). A 27 gauge-¾ inch “butterfly” needle was inserted into the lateral tail vein and the needle was secured with a narrow piece of adhesive tape. The animal was placed inside a 2 L glass beaker with free aeration from the top and allowed to move freely. The needle was connected by polyethylene tubing to a Beckton, Dickinson 1 ml syringe mounted on an infusion pump (Model ‘11’ plus syringe pump; Harvard Apparatus, Holliston, Mass.). PTZ solution (10 mg/ml) was infused at a constant rate of 0.5 ml/min. The infusion was stopped at 3 min or at the onset of tonic extension, whichever occurred first. The threshold value (mg/kg) for tonic extension was determined according to the formula: (infusion duration [sec]×infusion rate [ml/min]×PTZ concentration [mg/ml]×1000)/(60 [sec]×weight of mouse [g]).
In an initial experiment, the dose-response relationship for midazolam elevation of seizure threshold was assessed at doses of 100 μg/kg to 5 mg/kg (15 min pretreatment time). […] PK 11195 was used at a dose (15 mg/kg) as in the study of Ugale et al. (2004 Brain Res. 2004 Oct. 8; 1023(1):102-11). Clonazepam was administered at a dose of 100 μg/kg (Akula et al., 2009). The volume of all intraperitoneal injections was 10 ml/kg.
Results are expressed as mean±S.E.M.; the significance of the difference in the responses of treatment groups with respect to control is based on one-way analysis of variance (ANOVA) followed by specific post-hoc comparisons using Tukey's test. Differences are considered statistically significant when the probability of type I error was less than 0.05.

How did the “thresholds for clonus and tonic extensor phases, kainic acid infusion” value ([1]; intraperitoneal 2000 μg/kg, pretreatment 10 min (FIG. 4A)) turn out when `Cc1ncc2n1-c1ccc(Cl)cc1C(c1ccccc1F)=NC2` [Midazolam, midazolam] was run?
The value was “significant elevation”.

What about the “seizure thresholds, kainic acid infusion” value ([1]; intratracheal 100 μg/kg, pretreatment 10 min (FIG. 4B)) of the same compound?
The value was “effective”.

What about the “PTZ threshold for tonic extension vs vehicle” value (PTZ-induced seizures; intraperitoneal 500 to 5000 μg/kg (significant), 15 min before PTZ infusion (FIG. 7)) of the same compound?
The value was “dose-dependent elevation in threshold”.

What about the “increase in threshold for tonic extension (vs vehicle only control)” value (PTZ-induced seizures; midazolam 500 μg/kg i.p., 15 min before i.v. PTZ infusion, in the absence of finasteride) of the same compound?
The value was 2.3 fold.

And the “PTZ seizure threshold vs vehicle” value (PTZ-induced seizures; midazolam 100 or 200 μg/kg intratracheal, 10 min before PTZ, in the absence of flumazenil (FIG. 12))?
The value was “significant increase in the seizure threshold”.
